Experimental data taken from patent US20200079786A1, “ANALOGS OF […] AS SOLUBLE EPOXIDE HYDROLASE INHIBITORS” (UNIVERSITAT DE BARCELONA, priority 2015, published 2020).
Converted amounts (≈) assume the structure as drawn.

Tests used:
[1] = Determination of water solubility (nephelometry); format: physicochemical; conditions: aqueous with cosolvent or surfactant or cyclodextrin, kinetic from dmso stock; 5% DMSO: 95% PBS buffer, 37° C., read after 2 and 4 h; read-out: S (solubility)
[2] = system: Huh-7 cells; test: Amelioration of palmitate-induced ER stress: ATF3, BiP and CHOP mRNA by real-time PCR; format: cell-based; conditions: palmitate 0.5 mM + inhibitor 1 μM, 48 h; for Level of CHOP mRNA: control (CT) = 100.0, PAL alone 224.5; for Level of BiP mRNA: control (CT) = 100.0, PAL alone 242.9; for Level of ATF3 mRNA: control (CT) = 100.0, PAL alone 585.5
Protocol: Huh-7 cells were maintained in a humid atmosphere of 5% CO2 at 37° C. in high glucose (25 mM) Dulbecco's modified Eagle's medium supplemented with 10% heat-inactivated fetal bovine serum, 1% of penicillin/streptomycin (10.000 units/mL of penicillin and 10.000 μg/mL of streptomycin) and 1% of amphotericin B (250 μg/mL).
Huh-7 cells were serum-starved overnight prior treatment. […] For RNA extraction, cells were pre-treated with the inhibitors (final concentration 1 μM) for 1 hour before treatment with palmitate (final concentration 0.5 mM) and inhibitors (final concentration 1 μM). For each condition, at least 3 replicates were performed. Following 48 hours of incubation, RNA were extracted as described below.
Total RNA in hepatocytes was harvested by TRIsure (Bioline) according to the manufacturer's instructions. The extracted RNA was dissolved in RNase-free water and concentrations of total RNA were quantified using a NanoDrop 2000c spectrophotometer (Thermo Scientific). First-stranded cDNA was synthesized from 0.5 μg total RNA (Life Technologies). […] The PCR reaction contained 10 ng of reverse-transcribed RNA, 2× IQ™ SYBRGreen Supermix (BioRad, Barcelona, Spain) and 900 nmol/L concentration of each primer. Optical primer amplification efficiency for each primer set was assessed and a dissociation protocol was carried out to assure a single PCR product. PCR assays were performed on a MiniOpticon™ Real-Time PCR system (BioRad). Thermal cycling conditions were as follows: activation of Taq DNA polymerase at 95° C. for 10 min, followed by 40 cycles of amplification at 95° C. for 15 sec and 60° C. for 1 min. The relative levels of specific mRNA were estimated from the value of the threshold cycle (Ct) of the real-time PCR adjusted by that of a housekeeping gene (GAPDH) through the formula […] (ΔCt=Gene of interest Ct-GAPDH Ct). Cf.

[3] = Determination of cytotoxicity in THLE-2 cells (ATP viability); format: cell-based; conditions: human; THLE-2 cells, 72 h exposure, 0-100 μM; read-out: LC50 (μM), cytotoxicity
Protocol: Cytotoxic effects of assayed compounds were tested using the immortalized human liver cell line THLE-2 (ATCC CRL-2706). Cells were cultured in BEGM medium (Clonetics # CC-4175) containing all the supplements kit except additional EGF and G418. Medium was completed by adding 0.7 μg/mL phosphoethanolamine, 0.5 ng/mL epidermal growth factor, antibiotics (penicillin and streptomycin) and 10% fetal bovine serum (FBS).
Cells were plated in 96-well black microplates at 10,000 cells/well density and were incubated at 37° C. (5% CO2, 95% humidity) for 24 h to allow the cells to adhere and form a monolayer. Test compounds were solubilized in 100% DMSO at a concentration curve way and then diluted with cell culture medium containing 10% DMSO. The final concentrations of the test compounds (1% DMSO) ranged from 0-100 μM in a final volume of 200 μL. Microplates were maintained at 37° C. (5% CO2, 95% humidity) during 3 days. Following this 72 h exposure to test compounds, cell viability in each well was determined by measuring the concentration of cellular adenosine triphosphate (ATP) using the ATP1Step Kit as described by the manufacturer (Perkin-Elmer). In a typical procedure, 50 μL of cell reagent is added to all wells of each test plate followed by incubation for 10 min at room temperature on an orbital shaker. ATP concentration was determined by reading chemical luminescence using the Envision plate reader (PerkinElmer). The percentage of viable cells relative to the non-drug treated controls was determined for each well and LC50 values were calculated as concentrations projected to kill 50% of the cells following a 72 h exposure, an average of minimum two independent replicates.

[4] = Parallel artificial membrane permeation assay for blood-brain barrier (PAMPA-BBB); format: in vitro ADME, porcine; conditions: PBS:EtOH (70:30)
Protocol: The in vitro permeability (Pe) of the test compounds through lipid extract of porcine brain membrane was determined. Assayed compounds were tested using a mixture of PBS:EtOH (70:30). […] From this equation and taking into account the limits established by Di et al. for BBB permeation, the ranges of permeability were established, as follows.

[5] = molecular target: T1, CYP1A2 (Homo sapiens, UniProt P05177); test: Inhibition of human cytochrome P450 CYP1A2; format: in vitro ADME; conditions: human cytochrome P450 enzyme
T1 sequence (P05177 1-516): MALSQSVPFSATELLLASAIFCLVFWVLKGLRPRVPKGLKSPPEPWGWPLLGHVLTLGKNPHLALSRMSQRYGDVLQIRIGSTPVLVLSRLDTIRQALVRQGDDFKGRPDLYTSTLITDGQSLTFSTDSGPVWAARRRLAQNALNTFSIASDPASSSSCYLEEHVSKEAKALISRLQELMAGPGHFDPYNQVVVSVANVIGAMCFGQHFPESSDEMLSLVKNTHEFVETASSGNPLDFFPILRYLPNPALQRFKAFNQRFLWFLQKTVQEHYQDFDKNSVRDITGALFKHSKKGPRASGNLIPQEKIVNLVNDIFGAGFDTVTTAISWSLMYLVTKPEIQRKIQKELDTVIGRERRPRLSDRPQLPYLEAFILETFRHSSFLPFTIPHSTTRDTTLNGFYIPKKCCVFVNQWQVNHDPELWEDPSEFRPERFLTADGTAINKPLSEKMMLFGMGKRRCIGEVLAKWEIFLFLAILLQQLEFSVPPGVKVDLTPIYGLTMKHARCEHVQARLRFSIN
From the text: (§1) The epoxidation of arachidonic acid (AA) by selected cytochrome P450 epoxygenases generates epoxyeicosatrienoic acids (EETs). These EETs show anti-inflammatory, antihypertensive, analgesic, angiogenic, and antiatherosclerotic effects in rodents and humans. sEH converts EETs to their corresponding dihydroxyeicosatrienoic acids (DHETs), whereby the biological effects of EETs are diminished, eliminated, or altered. Among the P450 enzymes, it is known that CYP2C19 and CYP1A2 have the highest formation rate of EETs from AA (cf. A. A. El-Sherbeni et al. “Repurposing resveratrol and fluconazole to modulate human cytrochrome P450-mediated arachidonic acid metabolites”, Molecular Pharmaceutics 2016, vol. 13, pp. 1278-1288). For this reason, a highly desirable aspect of any new sEH inhibitor is selectivity in front of CYP2C19 and CYP1A2.

[6] = molecular target: CYP2C19 (Homo sapiens, UniProt P33261); test: Inhibition of human cytochrome P450 CYP2C19; format: in vitro ADME; conditions: human cytochrome P450 enzyme
From the text: as §1

[7] = molecular target: T2, sEH in AR42j cells (Rattus norvegicus, UniProt P80299); test: In vitro determination of sEH inhibition activity in AR42j cells (cell-based fluorescent assay); conditions: AR-42J, read-out: % Inhn. ± SE (100 μM), sEH inhibition activity in cell culture
T2 sequence (P80299 1-554): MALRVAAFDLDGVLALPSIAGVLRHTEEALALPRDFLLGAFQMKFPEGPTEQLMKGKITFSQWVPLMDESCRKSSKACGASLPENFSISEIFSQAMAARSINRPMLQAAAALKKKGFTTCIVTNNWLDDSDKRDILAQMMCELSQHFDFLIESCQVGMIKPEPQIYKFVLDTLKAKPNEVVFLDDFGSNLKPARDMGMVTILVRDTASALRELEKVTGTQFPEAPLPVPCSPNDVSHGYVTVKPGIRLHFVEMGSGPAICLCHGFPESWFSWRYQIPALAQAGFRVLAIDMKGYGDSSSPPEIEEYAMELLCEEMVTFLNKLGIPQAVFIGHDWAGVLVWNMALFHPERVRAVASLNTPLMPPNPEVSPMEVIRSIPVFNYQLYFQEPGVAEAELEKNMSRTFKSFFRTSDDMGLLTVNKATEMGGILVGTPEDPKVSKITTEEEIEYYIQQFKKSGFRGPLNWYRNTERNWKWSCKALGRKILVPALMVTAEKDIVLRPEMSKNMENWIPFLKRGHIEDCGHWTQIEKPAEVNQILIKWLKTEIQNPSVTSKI
Protocol: Solutions Preparation: • Assay buffer 1×: add 10 mL of the CBA-Buffer (10×) to 90 mL of distilled water. • Lysis Buffer: add 50 μL of the CBA Digitonin Solution to 10 mL of Buffer Assay 1×. • Substrate Solution: dilute 10 μL of CBA sEH Substrate with 10 mL of Assay Buffer 1×. • Standards: preparation of 7 concentrations of CBA 6-methoxy-2-naphtalaldehyde from 0 until 2 M with Assay Buffer 1×. • sEH Positive Control: Prepare another stock A (1 μg/ml: 1 μL CBA sEH Positive Control+1 mL Assay Buffer 1×). From the already prepared stock A, prepare 250 μL of sEH (10 ng/mL): 2.5 μL sEH stock A+250 μL Assay Buffer 1×). • sEH Inhibitor AUDA: dilute 10 μL CBA sEH Inhibitor with 500 ml Assay Buffer 1×. • Inhibitors dissolved in DMSO at appropriated concentrations.
Seed cells in a 96-well plate at a density of (2×10^4)-(5×10^4) cells/well in 100 μL of culture medium with or without compounds to be tested. Incubation of the cells in a CO2 incubator at 37° C. for 48 hours. Aspirate the culture medium and add 200 μL of Assay Buffer 1× to each well. Centrifuge the plate at 800 rmp for 5 minutes. Aspirate the supernatant and add 100 μL of Lysis Buffer to each well. Incubate with gentle shaking on an orbital shaker for 30 minutes at room temperature. Centrifuge the plate at 3000 rpm for 20 minutes at 4° C. Transfer 90 μL of the supernatants to the 96-Well Solid Plate (black). Add 10 μL Assay Buffer 1× or 10 μL of the AUDA solution to appropriate wells. For positive control wells, add 100 μL of the 10 ng/mL sEH Positive Control to two wells. Add 200 μL of 6-methoxy-2-Naphthaldehyde Standards to corresponding wells of the black plate. Add 100 μL of the sEH Substrate Solution to each well, except the standards. Incubate the plate at 37° C. for 30 minutes. […] The intensity of fluorescence was used to analyze and calculate inhibition percentages, shown in the Table as average of minimum three independent replicates.

Chain of CYP2C19 (P33261 whole entry): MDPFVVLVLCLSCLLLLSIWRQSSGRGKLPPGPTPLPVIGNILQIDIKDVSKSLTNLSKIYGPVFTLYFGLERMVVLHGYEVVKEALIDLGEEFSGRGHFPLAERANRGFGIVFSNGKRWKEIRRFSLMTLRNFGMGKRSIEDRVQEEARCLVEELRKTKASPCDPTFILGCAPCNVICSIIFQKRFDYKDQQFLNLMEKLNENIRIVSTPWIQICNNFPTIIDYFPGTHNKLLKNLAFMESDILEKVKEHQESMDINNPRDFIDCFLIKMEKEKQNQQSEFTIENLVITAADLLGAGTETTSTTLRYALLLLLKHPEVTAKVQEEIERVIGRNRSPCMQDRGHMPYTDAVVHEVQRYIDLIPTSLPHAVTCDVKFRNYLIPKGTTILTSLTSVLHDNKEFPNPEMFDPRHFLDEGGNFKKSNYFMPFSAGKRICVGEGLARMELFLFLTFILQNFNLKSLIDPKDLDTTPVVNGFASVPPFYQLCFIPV

| SMILES | solubility [1] [µM] | Level of CHOP mRNA [2] | Level of BiP mRNA [2] | Level of ATF3 mRNA [2] | CC50 at 72 h [3] [µM] | CNS prediction [4] | inhibition at 1 µM [5] [%] | inhibition at 1 µM [6] [%] | inhibition at 100 µM [7] [%] |
| --- | --- | --- | --- | --- | --- | --- | --- | --- | --- |
| O=C(Nc1ccc(F)c(F)c1F)NC12CC3CC(CC(C3)O1)C2 [Ia, 1-(2-oxaadamantan-1-yl)-3-(2,3,4-trifluorophenyl)urea] | 77 (≈ 25.1 µg/mL) | 129.9 ± 37.6^(###) | 129.0 ± 20.5^(###) | 191.4 ± 22.6^(###) | > 100 | CNS+ (Compounds of high BBB permeation (CNS+): Pe (10^6 cm s^−1)>5.181) | ≤ 6 | ≤ 6 | 35.8 ± 4.7 |
| CC(C)S(=O)(=O)N1CCC(NC(=O)NC23CC4CC(CC(C4)O2)C3)CC1 [Io, 1-(2-oxaadamant-1-yl)-3-(1-(isopropylsulfonyl)piperidin-4-yl)urea] | > 100 | – | – | – | > 100 | CNS− (compounds of low BBB permeation (CNS−): Pe (10^6 cm s^−1)<2.107) | ≤ 6 | ≤ 6 | 40.9 ± 1.99 |
| O=C(NC1CCN(C(=O)c2ccccc2F)CC1)NC12CC3CC(CC(C3)O1)C2 [Is, 1-(2-oxaadamant-1-yl)-3-(1-(2-fluorobenzoyl)piperidin-4-yl)urea] | > 100 | – | – | – | > 100 | CNS− (compounds of low BBB permeation (CNS−): Pe (10^6 cm s^−1)<2.107) | ≤ 6 | ≤ 6 | 45.3 ± 3.5 |
| O=C(Nc1cc(Cl)cc(OC(F)(F)F)c1)NC12CC3CC(CC(C3)O1)C2 [Iu] | 45 (≈ 17.6 µg/mL) | – | – | – | – | – | ≤ 6 | ≤ 6 | – |
| O=C(Nc1ccc(Cl)c(C(F)(F)F)c1)NC12CC3CC(CC(C3)O1)C2 [Iv, 1-(2-oxaadamantan-1-yl)-3-(4-chloro-3-(trifluoromethyl)phenyl)urea] | 60 (≈ 22.5 µg/mL) | – | – | – | 45.8 ± 3.8 | CNS+ (Compounds of high BBB permeation (CNS+): Pe (10^6 cm s^−1)>5.181) | ≤ 6 | ≤ 6 | 51.6 ± 6.6 |
| O=C(Nc1cccc(S(F)(F)(F)(F)F)c1)NC12CC3CC(CC(C3)O1)C2 [Ix, 1-(2-oxaadamantan-1-yl)-3-(3-(pentafluoro-λ^6-sulfanyl)phenyl)urea] | > 100 | – | – | – | – | – | ≤ 6 | ≤ 6 | – |
| O=C(Nc1ccc(F)c(F)c1F)NC12CC3CC(CC(C3)C1)C2 [Std 1, 1-(Adamantan-1-yl)-3-(2,3,4-trifluorophenyl)urea, reference compound] | 66 (≈ 21.4 µg/mL) | – | – | – | – | – | – | – | 56.6 ± 11 |
| O=C(Nc1ccc(F)c(F)c1F)NC1C2CC3CC(C2)CC1C3 (centres unmarked) [Std 2, 1-(Adamantan-2-yl)-3-(2,3,4-trifluorophenyl)urea, reference compound] | – | 141.8 ± 23.7^(###) | 135.1 ± 16.2^(###) | 225.6 ± 21.2^(###) | – | – | – | – | – |
